Assay: Waters ACQUITY UPLC BEH C18, 100 × 2.1 mm, 1.7 µm, 40 °C, 0.3 to 0.4 mL/min, estimated dead time 0.63 min; A: water + 0.1% formic acid; B: methanol + 0.1% formic acid; gradient (min/%B) 0/0.5 0.1/0.5 10/80 10.1/99.5 12/99.5
Settings: stereoisomer not certain

Row | LC retention time [min] | Compound
1 | 9.19 | CSCCCCCCCN=C=S
2 | 2.7 | COc1cc(C=CC(=O)NCCCCN)ccc1O
3 | 6.83 | COc1cc(C=CC(=O)N2CCC=CC2=O)cc(OC)c1OC
4 | 6.19 | O=C(Cc1c[nH]c2ccccc12)NC(Cc1c[nH]c2ccccc12)C(=O)O (configuration not stated)
5 | 4.73 | COc1cc(C=CC=O)cc(OC)c1O
6 | 5.73 | COc1ccc(-c2coc3cc(OC4OC(CO)C(O)C(O)C4O)cc(O)c3c2=O)cc1 (configuration not stated)
7 | 2.49 | OCC1OC(Oc2cc(O)cc3[o+]c(-c4ccc(O)c(O)c4)c(OC4OC(CO)C(O)C(O)C4OC4OCC(O)C(O)C4O)cc23)C(O)C(O)C1O (configuration not stated)
8 | 6.07 | COc1ccc(-c2cc(=O)c3c(O)cc(O)cc3o2)cc1-c1c(O)cc(O)c2c(=O)cc(-c3ccc(O)cc3)oc12
9 | 6.19 | CCC(C)=CCCC(C)(OC1OC(COC2OCC(O)C(O)C2O)C(O)C(O)C1O)C1CCC2(C)C3CCC4C(C)(C)C(OC5OC(CO)C(O)C(O)C5OC5OC(CO)C(O)C(O)C5O)CCC4(C)C3CC(O)C12 (configuration not stated)
10 | 2.74 | CS(=O)CCCCCCCCC(N)C(=O)O (configuration not stated)
11 | 4.77 | O=C(C=Cc1ccc(O)cc1)OC1C(OC2C(Oc3ccc(-c4cc(=O)c5c(O)cc(O)cc5o4)cc3)OC(C(=O)O)C(O)C2O)OC(C(=O)O)C(O)C1O (configuration not stated)
12 | 5.99 | COc1ccc(-c2oc3cc(O)cc(O)c3c(=O)c2O)cc1
13 | 4.79 | COc1cc(O)c2c(=O)c(OC3OC(COC4OC(C)C(O)C(OC5OC(C)C(O)C(O)C5O)C4O)C(O)C(O)C3O)c(-c3ccc(O)c(O)c3)oc2c1 (configuration not stated)
14 | 4.55 | CC(NC(=O)Cc1c[nH]c2ccccc12)C(=O)O (configuration not stated)

Row | Compound | LC retention time [min]
15 | C=C1CC(=CC)C(=O)OC2CCN3CC=C(COC(=O)C1(C)O)C23 (configuration not stated) | 3.45
16 | NCCc1ccc(O)cc1 | 1.83
17 | C1CCC(C23CC(CC4CCCNC42)C2CCCCN2C3)NC1 (configuration not stated) | 2.24
